Measured values reported in ChEMBL document CHEMBL3763131, “Anion inhibition studies of the β-carbonic anhydrase from the pathogenic bacterium Vibrio cholerae” (Bioorg Med Chem Lett, 2016).
“And” between values parts separate entries of the source, which are not always exact repeats. Equal entries are not always repeated.

Target: Carbonic anhydrase 1 (Homo sapiens, UniProt P00915)
Assay: Inhibition of human carbonic anhydrase 1 preincubated for 15 mins by stopped-flow CO2 hydration assay

Sequence of Carbonic anhydrase 1 (P00915 whole entry): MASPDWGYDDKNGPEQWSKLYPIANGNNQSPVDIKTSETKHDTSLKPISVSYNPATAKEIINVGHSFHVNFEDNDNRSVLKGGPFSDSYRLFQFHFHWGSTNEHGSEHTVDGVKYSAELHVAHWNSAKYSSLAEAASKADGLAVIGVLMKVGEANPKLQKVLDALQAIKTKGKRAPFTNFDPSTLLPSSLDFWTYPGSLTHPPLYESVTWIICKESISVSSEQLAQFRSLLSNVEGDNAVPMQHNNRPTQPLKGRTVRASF

Compared with `F[B-](F)(F)F`, `N=C=[Se]` [ISOSELENOCYANATE] is lower in Ki: over 200000 µM for the first, 8.5 µM for the second. The second binds more tightly here.

Target: not listed separately
Assay: Inhibition of Vibrio cholerae alpha-carbonic anhydrase preincubated for 15 mins by stopped-flow CO2 hydration assay

`O=S(=O)(O)NS(=O)(=O)O` and `O=S(=O)(O)OOS(=O)(=O)O` are within 1.5-fold of each other in Ki: 88200 µM for the first, 84100 µM for the second.

First: F[B-](F)(F)F
Second: O=[N+]([O-])O
The Ki of the first is higher: over 200000 µM for the first, 670 µM for the second. The second binds more tightly here.

Compared with `O=[Te](=O)(O)O`, `O=[Se](=O)(O)O` [SELENIC ACID] is 4.2-fold higher in Ki: 14500 µM for the first, 60800 µM for the second.

Going from `[N-]=[N+]=[N-]` to `Br` [BROMIDE], the Ki rises from 760 µM to 28000 µM (37-fold). The first binds more tightly here.

Going from `S=C(S)S` [CARBONOTRITHIOIC ACID] to `CCN(CC)C(=S)S` [DITIOCARB], the Ki falls from 88 µM to 43 µM (2-fold). The second binds more tightly here.

Going from `N#CO` [CYANATE] to `N=C=[Se]` [ISOSELENOCYANATE], the Ki rises from 75 µM to 760 µM (10-fold).

`F` [FLUORIDE ION] and `Cl` [HYDROCHLORIC ACID] are within 1.5-fold of each other in Ki: 800 µM for the first, 930 µM for the second.

Compared with `S` [HYDROGEN SULFIDE], `I` [IODIDE] is 130-fold higher in Ki: 74 µM for the first, 9730 µM for the second. The first binds more tightly here.

Going from `N=C=S` [ISOTHIOCYANATE] to `O=NO` [NITROUS ACID], the Ki rises from 820 µM to 34100 µM (42-fold). The first binds more tightly here.

Compared with `[O-][Cl+3]([O-])([O-])O` [PERCHLORATE], `O=S(O)O` [SULFUROUS ACID] is lower in Ki: over 200000 µM for the first, 68 µM for the second. The second binds more tightly here.

Compared with `O=[As](O)(O)c1ccccc1` [PHENYLARSONIC ACID], `OB(O)c1ccccc1` [PHENYLBORONIC ACID] is 3.3-fold lower in Ki: 23 µM for the first, 7 µM for the second. The second binds more tightly here.

First: O=P(O)(O)OP(=O)(O)O [PYROPHOSPHORIC ACID]
Second: O=S(=O)(O)O [SULFURIC ACID]
The Ki of the first is 3.5-fold higher: 2960 µM for the first, 850 µM for the second.

Compared with `NS(=O)(=O)O` [SULFAMATE], `NS(N)(=O)=O` [SULFAMIDE] is 3.9-fold lower in Ki: 31 µM for the first, 8 µM for the second.

In the case of `O=C(O)O` [BICARBONATE], the Ki is reported as 4640 µM and 5130 µM.
